Assay results from patent US11738099B2, “Molecular probes and methods of use” (CASE WESTERN RESERVE UNIVERSITY, priority 2014, dated 2023).
Entries after “also recorded” stand apart in the source; their conditions may differ. Where a SMILES comes first, the peptide text is derived from it. The star is where a group is joined. X1 = O=C(O)CN1CCN(CC(=O)O)CCN(CC(O)Cn2cc(CCCC(=O)*)nn2)CCN(CC(=O)O)CC1; PEG2 = NCCOCCOCCC(=O)O

Tests used:
[1] = Relaxivity measurement at 3T; assay type: physicochemical
Procedure: The design of the EDB-FN targeted MRI agent was based on a modular system that forms small molecular contrast agent in conjugation with l-ZD2. Compound 1 in FIG. 7A was prepared by adding a short PEG linker, followed by reacting with 5-hexynoic acid, resulting in an alkyne group for conjugation through click chemistry. The final product from reaction of compound 1 and 2 was purified with HPLC and characterized with Maldi-Tof spectrum.

[2] = system: PC3 prostate tumor xenografts; assay: T1-weighted MRI at 1 Tesla, PC3 tumors (Example 3); assay type: in vivo, mouse
Procedure: (§1) Male athymic nude mice were purchased from Case Comprehensive Cancer Center (Cleveland, Ohio, USA) and housed in the Animal Core Facility at Case Western Reserve University. All animal experiments were performed in accordance with the animal protocol approved by the CWRU Institutional Animal Care and Use Committee. Athymic nude male mice were subcutaneously injected with 100 μL cell suspension (4×10^7 cells/mL) in matrigel matrix (Corning Bioscience, Corning, N.Y.) to initiate tumors. Mice with tumors of 5-8 mm in diameter were used for imaging studies.
(§2) MR images of tumor bearing mice were acquired on an Aspect M3 small animal MRI scanner (1 Tesla). Mice were placed on a holder with the temperature maintained at 37° C., with isoflurane/oxygen mixture supplied to the mice through a nose cone. A thin catheter filled with PBS was connected to a tail vein of the mice. After mice were placed in the coil, a pilot scan was performed to adjust mice to the proper location in the coil. An axial T1 weighted sequence (TR=500 ms; TE=9 ms; Flip angle=90°; Field of view=3 cm×3 cm; Matrix size=128×128×8; slice thickness=2 mm; interslice distance=1 mm) was then used to acquire the images of the tumors before and 10 min, 20 min and 30 min after contrast injection. Images were exported into DICOM data, which were then processed and analyzed using Matlab (Natick, Mass., USA). The contrast to-noise ratio of tumors in the images were calculated as the difference between tumor mean intensity minus muscle mean intensity, divided by the noise.

[3] = system: LNCaP prostate tumor xenografts; assay: T1-weighted MRI at 1 Tesla, LNCaP tumors (Example 3); assay type: in vivo, mouse; conditions: 0.1 mmol/kg i.v., up to 30 min
Procedure: as §1
as §2, with “An axial T1 weighted sequence (TR=500 ms; TE=9 ms; Flip angle=90°; Field of view=3 cm×3 cm; Matrix size=128×128×8; slice thickness=2 mm; interslice distance=1 mm) was then used to acquire the images of the tumors before and 10 min, 20 min and 30 min after contrast injection.” left out

[4] = r1 relaxivity by T1 mapping in PC3 tumor lysates; assay type: physicochemical
[5] = Relaxivity measurement at 7T in PBS; assay type: physicochemical
Procedure: To accurately capture T1 maps, a fast T1 mapping method was developed. This accelerated multi-slice T1-mapping method combines a saturation recovery look-locker sequence and spiral k-space sampling^40. The NMR tubes filled with 3.12-50 μM ZD2-Gd(HP-DO3A) were positioned in a mouse coil and scanned with T1-weighted spin echo sequence, cartesian T1-mapping sequence, and spiral T1-mapping sequence. Axial images were acquired. CNR values from the T1-weighted sequence were calculated from signal from the samples subtracting surrounding water signal, and divided by noise. T1 values of the samples were reconstructed by fitting signal change during the acquisition time to the adapted T1-relaxation curve.

[6] = In vitro transmetallation in serum; assay type: in vitro ADME, human; conditions: blood plasma containing Cu2+, Ca2+, Zn2+; vs MultiHance and OmniScan
Procedure: […] The plasma mixtures were transferred to CF-10 centrifugal filters (molecular weight cut-off 10 KDa) and centrifuged at 4,000 rpm and 25° C. for 150 min. During centrifugation, the solution in the upper reservoir was agitated using a pipette every 20 min for the plasma mixtures. The content of metal ions in both the upper reservoir and the filtrates was determined by ICP-OES after appropriate dilution. The degree of transmetallation of the contrast agents with Zn(II) or Cu(II) ions in the plasma was evaluated using the percentage of Zn(II) or Cu(II) ions filtered through the membrane, calculated as Zn(Cu) %=(concentration of Zn(II) or Cu(II) in the filtrates)/(total Zn(II) or Cu(II) concentration before centrifugal filtration)×100. Human serum was used a control.

[7] = system: PC3 prostate tumor xenografts; assay: In vivo T1-weighted MRI at 7T, PC3 tumors; parameters: species or system mouse
Procedure: All MRI experiments were performed on a horizontal 7T Bruker scanner (Bruker Biospin Co., Billerica, Mass.). Imaging experiments were performed when the tumor size reached 5-8 mm in diameter. ZD2-Gd(HP-DO3A) was administered intravenously at the dose of 0.1 mmol/kg after acquiring pre-contrast images. Post-contrast images were obtained at 10 min interval up to 30 min. The axial slices of mouse at the tumor location were acquired using T1-weighted spin echo sequence with the following parameters: field of view (FOV): 3 cm; slice thickness: 1.2 mm; interslice distance: 1.2 mm; TR: 500 ms, TE: 8.1 ms; flip angle: 90°; average: 2; matrix size: 128×128. Contrast-to-noise ratio (CNR) at each time point was calculated by subtraction of the average signal intensity in the tumor and muscle, divided by the standard deviation of image noise. ProHance® (gadoteridol) was used as a control in the imaging experiments.

SMILES: CC(C)[C@H](NC(=O)[C@@H](NC(=O)CCOCCOCCNC(=O)CCCc1cn(CC(O)CN2CCN(CC(=O)O)CCN(CC(=O)O)CCN(CC(=O)O)CC2)nn1)[C@@H](C)O)C(=O)N[C@@H](CCCNC(=N)N)C(=O)N[C@H](C(=O)N[C@@H](CO)C(=O)N[C@@H](C)C(=O)N[C@@H](CC(=O)O)C(=O)O)[C@@H](C)O (some centres unmarked) [ZD2-Gd(HP-DO3A)] ({X1-PEG2}-TVRTSAD-OH)
- relaxivities (T1 and T2) [1]: relatively high relaxivities
- signal enhancement in PC3 tumors ([2]; 0.1 mmol/kg i.v., up to 30 min, 1 Tesla): Strong signal enhancement
- increase of contrast-to-noise ratio (CNR) in PC3 tumors ([2]; 10 min after injection): over two-fold increase
- signal enhancement in LNCaP tumors [3]: significantly lower signal enhancement; also recorded: did not produce significant contrast enhancement
- r1 relaxivity [4]: 4.12 mM⁻¹ s⁻¹
- T1 relaxivity [5]: 3.7 mM⁻¹ s⁻¹
- stability against transmetallation [6]: same high stability as ProHance
- signal enhancement in PC3 tumors ([7]; 0.1 mmol/kg i.v., up to 30 min, 7T): Strong signal enhancement
- signal enhancement and CNR in PC3 tumors with co-injection of free ZD2 peptide ([7]; 0.1 mmol/kg with 0.5 mmol/kg free ZD2 peptide): significantly reduced
- CNR in PC3 tumors ([7]; 10-30 min post-injection): 12-25
- increase of CNR in PC3 tumors ([7]; 10 min after injection): over two-fold increase
- increase of CNR in PC3 tumors ([7]; 30 min): over five-fold increase
- CNR in PC3 tumors ([7]; 30 min (peak), n=5, SEM): 23.7±1.68
- contrast enhancement in other organs and normal tissues ([7]; mouse, in vivo): did not produce significant contrast enhancement
